Data taken from patent publication US20240124427A1, “HYDROXYHETEROCYCLOALKANE-CARBAMOYL DERIVATIVES” (Idorsia Pharmaceuticals Ltd, priority 2021, published 2024).

target: human Gal-3 (hGal-3) (Homo sapiens (Human), UniProt P17931); assay: Competitive binding assay: biotinylated hGal-3 binding to microplate-adsorbed asialofetuin (ASF); details: Activity on hGal-3; mean values of several measurements; mixture of diastereomers measured where not separated
Procedure: The inhibitory activity of compounds is determined in competitive binding assays. This spectrophotometric assay measures the binding of biotinylated human Gal-3 (hGal-3) or human Gal-1 (hGal-1), respectively, to a microplate-adsorbed glycoprotein, asialofetuin (ASF) (Proc Natl Acad Sci USA. 2013 Mar 26;110(13):5052-7.). Alternatively, and preferably, a human Gal-1 version in which all six cysteines are substituted by serines may be used.
Briefly, compounds are serially diluted in DMSO (working dilutions).
Plates are incubated for 3 hours at 4° C., then washed with cold assay buffer (3×50 uL), incubated for 1 hour with 25 μL/well of a streptavidin-peroxidase solution (diluted in assay buffer to 80 ng/mL) at 4° C., followed by further washing steps with assay buffer (3×50 uL). Finally, 25 μL/well of ABTS substrate is added.
The calculated IC50 values may fluctuate depending on the daily assay performance. Fluctuations of this kind are known to those skilled in the art. IC50 values from several measurements are given as mean values.

Chain of human Gal-3 (hGal-3) (P17931 whole entry): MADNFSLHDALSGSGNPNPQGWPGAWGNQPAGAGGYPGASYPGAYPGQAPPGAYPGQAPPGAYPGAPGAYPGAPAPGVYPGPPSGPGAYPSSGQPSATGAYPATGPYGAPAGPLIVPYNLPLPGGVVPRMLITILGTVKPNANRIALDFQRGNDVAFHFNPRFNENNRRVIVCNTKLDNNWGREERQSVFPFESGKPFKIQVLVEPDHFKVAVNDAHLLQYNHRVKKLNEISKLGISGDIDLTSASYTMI

IC50 [nM] | SMILES
66 | CO[C@@H]1[C@@H](n2cc(-c3cc(F)c(C)c(F)c3)nn2)[C@@H](O)[C@@H](CO)O[C@H]1C(=O)N(c1cc(Br)cc(C#N)c1)[C@H]1COC[C@@H]1O [Example 17, (2R,3R,4S,5R,6R)-N-(3-bromo-5-cyanophenyl)-4-(4-(3,5-difluoro-4-methylphenyl)-1H-1,2,3-triazol-1-yl)-5-hydroxy-6-(hydroxymethyl)-N-((3S,4R)-4-hydroxytetrahydrofuran-3-yl)-3-methoxytetrahydro-2H-pyran-2-carboxamide]
69 | CO[C@@H]1[C@@H](n2cc(-c3cc(F)c(C)c(F)c3)nn2)[C@@H](O)[C@@H](CO)O[C@H]1C(=O)N(c1cc(C)cc(Br)c1)[C@H]1COC[C@@H]1O [Example 18, (2R,3R,4S,5R,6R)-N-(3-bromo-5-methylphenyl)-4-(4-(3,5-difluoro-4-methylphenyl)-1H-1,2,3-triazol-1-yl)-5-hydroxy-6-(hydroxymethyl)-N-((3S,4R)-4-hydroxytetrahydrofuran-3-yl)-3-methoxytetrahydro-2H-pyran-2-carboxamide]
40 | CO[C@@H]1[C@@H](n2cc(-c3ccc(C)c(F)c3F)nn2)[C@@H](O)[C@@H](CO)O[C@H]1C(=O)N(c1cc(Cl)cc(Cl)c1)[C@H]1COC[C@@H]1O [Example 19, (2R,3R,4S,5R,6R)-N-(3,5-dichlorophenyl)-4-(4-(2,3-difluoro-4-methylphenyl)-1H-1,2,3-triazol-1-yl)-5-hydroxy-6-(hydroxymethyl)-N-((3S,4R)-4-hydroxytetrahydrofuran-3-yl)-3-methoxytetrahydro-2H-pyran-2-carboxamide]
31 | CO[C@@H]1[C@@H](n2cc(-c3ccc(C)c(F)c3F)nn2)[C@@H](O)[C@@H](CO)O[C@H]1C(=O)N(c1cc(Br)cc(C#N)c1)[C@H]1COC[C@@H]1O [Example 20, (2R,3R,4S,5R,6R)-N-(3-bromo-5-cyanophenyl)-4-(4-(2,3-difluoro-4-methylphenyl)-1H-1,2,3-triazol-1-yl)-5-hydroxy-6-(hydroxymethyl)-N-((3S,4R)-4-hydroxytetrahydrofuran-3-yl)-3-methoxytetrahydro-2H-pyran-2-carboxamide]
35 | CO[C@@H]1[C@@H](n2cc(-c3ccc(C)c(F)c3F)nn2)[C@@H](O)[C@@H](CO)O[C@H]1C(=O)N(c1cc(C)cc(Br)c1)[C@H]1COC[C@@H]1O [Example 21, (2R,3R,4S,5R,6R)-N-(3-bromo-5-methylphenyl)-4-(4-(2,3-difluoro-4-methylphenyl)-1H-1,2,3-triazol-1-yl)-5-hydroxy-6-(hydroxymethyl)-N-((3S,4R)-4-hydroxytetrahydrofuran-3-yl)-3-methoxytetrahydro-2H-pyran-2-carboxamide]
50 | CO[C@@H]1[C@@H](n2cc(-c3cc(F)c(Cl)c(F)c3)nn2)[C@@H](O)[C@@H](CO)O[C@H]1C(=O)N(c1cc(Cl)cc(Cl)c1)[C@H]1COC[C@@H]1O [Example 22, (2R,3R,4S,5R,6R)-4-(4-(4-chloro-3,5-difluorophenyl)-1H-1,2,3-triazol-1-yl)-N-(3,5-dichlorophenyl)-5-hydroxy-6-(hydroxymethyl)-N-((3S,4R)-4-hydroxytetrahydrofuran-3-yl)-3-methoxytetrahydro-2H-pyran-2-carboxamide]
55 | CO[C@@H]1[C@@H](n2cc(-c3cc(F)c(Cl)c(F)c3)nn2)[C@@H](O)[C@@H](CO)O[C@H]1C(=O)N(c1cc(Br)cc(Br)c1)[C@H]1COC[C@@H]1O [Example 23, (2R,3R,4S,5R,6R)-4-(4-(4-chloro-3,5-difluorophenyl)-1H-1,2,3-triazol-1-yl)-N-(3,5-dibromophenyl)-5-hydroxy-6-(hydroxymethyl)-N-((3S,4R)-4-hydroxytetrahydrofuran-3-yl)-3-methoxytetrahydro-2H-pyran-2-carboxamide]
31 | CO[C@@H]1[C@@H](n2cc(-c3cc(F)c(Cl)c(F)c3)nn2)[C@@H](O)[C@@H](CO)O[C@H]1C(=O)N(c1cc(C)cc(Br)c1)[C@H]1COC[C@@H]1O [Example 25, (2R,3R,4S,5R,6R)-N-(3-bromo-5-methylphenyl)-4-(4-(4-chloro-3,5-difluorophenyl)-1H-1,2,3-triazol-1-yl)-5-hydroxy-6-(hydroxymethyl)-N-((3S,4R)-4-hydroxytetrahydrofuran-3-yl)-3-methoxytetrahydro-2H-pyran-2-carboxamide]
162 | CO[C@@H]1[C@@H](n2cc(-c3ccc(Cl)c(Cl)c3)nn2)[C@@H](O)[C@@H](CO)O[C@H]1C(=O)N(c1cc(Cl)cc(Cl)c1)[C@H]1COC[C@@H]1O [Example 26, (2R,3R,4S,5R,6R)-N-(3,5-dichlorophenyl)-4-(4-(3,4-dichlorophenyl)-1H-1,2,3-triazol-1-yl)-5-hydroxy-6-(hydroxymethyl)-N-((3S,4R)-4-hydroxytetrahydrofuran-3-yl)-3-methoxytetrahydro-2H-pyran-2-carboxamide]
89 | CO[C@@H]1[C@@H](n2cc(-c3ccc(Cl)c(Cl)c3)nn2)[C@@H](O)[C@@H](CO)O[C@H]1C(=O)N(c1cc(Br)cc(Br)c1)[C@H]1COC[C@@H]1O [Example 27, (2R,3R,4S,5R,6R)-N-(3,5-dibromophenyl)-4-(4-(3,4-dichlorophenyl)-1H-1,2,3-triazol-1-yl)-5-hydroxy-6-(hydroxymethyl)-N-((3S,4R)-4-hydroxytetrahydrofuran-3-yl)-3-methoxytetrahydro-2H-pyran-2-carboxamide]
115 | CO[C@@H]1[C@@H](n2cc(-c3ccc(Cl)c(Cl)c3)nn2)[C@@H](O)[C@@H](CO)O[C@H]1C(=O)N(c1cc(Br)cc(C#N)c1)[C@H]1COC[C@@H]1O [Example 28, (2R,3R,4S,5R,6R)-N-(3-bromo-5-cyanophenyl)-4-(4-(3,4-dichlorophenyl)-1H-1,2,3-triazol-1-yl)-5-hydroxy-6-(hydroxymethyl)-N-((3S,4R)-4-hydroxytetrahydrofuran-3-yl)-3-methoxytetrahydro-2H-pyran-2-carboxamide]
153 | CO[C@@H]1[C@@H](n2cc(-c3ccc(Cl)c(Cl)c3)nn2)[C@@H](O)[C@@H](CO)O[C@H]1C(=O)N(c1cc(C)cc(Br)c1)[C@H]1COC[C@@H]1O [Example 29, (2R,3R,4S,5R,6R)-N-(3-bromo-5-methylphenyl)-4-(4-(3,4-dichlorophenyl)-1H-1,2,3-triazol-1-yl)-5-hydroxy-6-(hydroxymethyl)-N-((3S,4R)-4-hydroxytetrahydrofuran-3-yl)-3-methoxytetrahydro-2H-pyran-2-carboxamide]
235 | CO[C@@H]1[C@@H](n2cc(-c3cc(F)c(F)c(F)c3)nn2)[C@@H](O)[C@@H](CO)O[C@H]1C(=O)N(c1cccc(Cl)c1)[C@@H]1COC[C@H]1O [Example 30, (2R,3R,4S,5R,6R)-N-(3-chlorophenyl)-5-hydroxy-6-(hydroxymethyl)-N-((3R,4S)-4-hydroxytetrahydrofuran-3-yl)-3-methoxy-4-(4-(3,4,5-trifluorophenyl)-1H-1,2,3-triazol-1-yl)tetrahydro-2H-pyran-2-carboxamide]
103 | CO[C@@H]1[C@@H](n2cc(-c3cc(F)c(F)c(F)c3)nn2)[C@@H](O)[C@@H](CO)O[C@H]1C(=O)N(c1cccc(Br)c1)[C@@H]1COC[C@H]1O [Example 31, (2R,3R,4S,5R,6R)-N-(3-bromophenyl)-5-hydroxy-6-(hydroxymethyl)-N-((3R,4S)-4-hydroxytetrahydrofuran-3-yl)-3-methoxy-4-(4-(3,4,5-trifluorophenyl)-1H-1,2,3-triazol-1-yl)tetrahydro-2H-pyran-2-carboxamide]
130 | CO[C@@H]1[C@@H](n2cc(-c3cc(F)c(F)c(F)c3)nn2)[C@@H](O)[C@@H](CO)O[C@H]1C(=O)N(c1cccc(I)c1)[C@@H]1COC[C@H]1O [Example 32, (2R,3R,4S,5R,6R)-5-hydroxy-6-(hydroxymethyl)-N-((3R,4S)-4-hydroxytetrahydrofuran-3-yl)-N-(3-iodophenyl)-3-methoxy-4-(4-(3,4,5-trifluorophenyl)-1H-1,2,3-triazol-1-yl)tetrahydro-2H-pyran-2-carboxamide]
104 | CO[C@@H]1[C@@H](n2cc(-c3cc(F)c(F)c(F)c3)nn2)[C@@H](O)[C@@H](CO)O[C@H]1C(=O)N(c1cc(Cl)cc(Cl)c1)[C@@H]1COC[C@H]1O [Example 33, (2R,3R,4S,5R,6R)-N-(3,5-dichlorophenyl)-5-hydroxy-6-(hydroxymethyl)-N-((3R,4S)-4-hydroxytetrahydrofuran-3-yl)-3-methoxy-4-(4-(3,4,5-trifluorophenyl)-1H-1,2,3-triazol-1-yl)tetrahydro-2H-pyran-2-carboxamide]
102 | CO[C@@H]1[C@@H](n2cc(-c3cc(F)c(F)c(F)c3)nn2)[C@@H](O)[C@@H](CO)O[C@H]1C(=O)N(c1cc(Cl)cc(C#N)c1)[C@@H]1COC[C@H]1O [Example 34, (2R,3R,4S,5R,6R)-N-(3-chloro-5-cyanophenyl)-5-hydroxy-6-(hydroxymethyl)-N-((3R,4S)-4-hydroxytetrahydrofuran-3-yl)-3-methoxy-4-(4-(3,4,5-trifluorophenyl)-1H-1,2,3-triazol-1-yl)tetrahydro-2H-pyran-2-carboxamide]
84 | CO[C@@H]1[C@@H](n2cc(-c3cc(F)c(F)c(F)c3)nn2)[C@@H](O)[C@@H](CO)O[C@H]1C(=O)N(c1cc(Br)cc(Br)c1)[C@@H]1COC[C@H]1O [Example 35, (2R,3R,4S,5R,6R)-N-(3,5-dibromophenyl)-5-hydroxy-6-(hydroxymethyl)-N-((3R,4S)-4-hydroxytetrahydrofuran-3-yl)-3-methoxy-4-(4-(3,4,5-trifluorophenyl)-1H-1,2,3-triazol-1-yl)tetrahydro-2H-pyran-2-carboxamide]
